Patent US7932291B2, “Use of L-carnitine and its alkanoyl derivatives as osmotic agents in solutions for medical use” (Sigma-Tau Industrie Farmaceutiche Riunite S.p.A., priority 1999, dated 2011)

Tested on: male Sprague-Dawley rats
Experiment: In-vivo peritoneal dialysis in rats: fluid volume recovered from the peritoneum
Parameters: species or system rat
Experimental: The peritoneal dialysis experiment was conducted in male Sprague-Dawley rats weighing 500-600 g (Charles River) maintained on a standard diet with water ad libitum. The animals were anaesthetized with an intraperitoneal injection of inactin (100 mg/kg) and were placed on an operating table at controlled temperature. The animals were submitted to a tracheostomy to cannulate the left jugular vein with a PESO medical silicone tube. Thirty minutes after administration of the anaesthetic the animals were infused with a saline solution at a rate of 2.3 ml/h throughout the period of the experiment. The dialysis solution (15 ml), after preheating to 37° C., was inoculated into the peritoneal cavity with a 15 teflon needle-cannula 1 h after administration of the anaesthetic. The amount of fluid injected was determined by weighing the syringe before and after injection of the fluid, using an electronic scale. At the end of each analysis period (2, 4 and 6 h), incisions were made in the rats' abdomens with an acusector and all the fluid present in the peritoneum was aspirated with a 1 ml syringe. After removing the surface fluid, the intestines were carefully shifted from the abdominal cavity to collect the residual fluid remaining on the dorsal wall. The fluid recovered was placed in a beaker and weighed. […]

C[N+](C)(C)C[C@H](O)CC(=O)[O-] [Carnitine, L-carnitine]
Quality as osmotic agent compared with glucose (rat peritoneal dialysis, 1.5-4.25%): at least as good as glucose
Time by which the increase in intraperitoneal fluid volume is completed / peak activity reached (rat, all concentrations used (1.5, 2.5, 4.25%)): ≤ 2 h
